Data on three compounds can be found in patent publication US12150926B2 (SICHUAN JIUZHANG BIOLOGICAL SCIENCE AND TECHNOLOGY CO., LTD., priority 2018, dated 2024).

Experiment [1] relates to transplanted tumor in S180 sarcoma-bearing KM mice. Description: In vivo inhibitory effect of chlorogenic acid on S180 sarcoma transplantation in KM mice (Experimental example 1). On the set-up: species or system mouse; key to growth volume of transplanted tumor: V = 0.52 × L × W² (long × shortest diameter²), in cm³. The settings on record: for growth volume of transplanted tumor: x ± s, n = 10; for inhibitory effect on the growth volume of transplanted tumors (in words): at different time points, compared with negative control group, chlorogenic acid systemic, local and systemic+local groups 30 mg/kg, ADM 2 mg/kg; for Tumor inhibiton rate: from tumor weight vs negative group; for Tumor weight: at termination. Here is the method: (§1) KM mice, half male and half female, weighing 17-24 g.
S180 cell lines were mouse sarcoma cells, and suspendedly grew in DH medium, containing 20% calf serum, 1 mmol/L glutamine, 100 U·ml^−1 penicillin, and 100 μg·ml^−1 streptomycin, then cultured in 37° C. 5% CO2, saturated humidity incubator. The medium was changed every 2-3 days for passage.
S180 cells in the logarithmic growth phase were harvested, centrifuged at 1000 rpm for 5 min, washed twice, and the number of viable cells was counted by trypan blue staining. The cells were inoculated into the abdominal cavity of KM mice as soon as possible, and these mice were used as breeding mice. 2) In vivo experiment The ascites was extracted from 7 to 10 days, and the number of cells was adjusted to (about 1×10^6 cells) after dilution. The cell suspension in ascites was inoculated subcutaneously in the axillary of the left forelimb of the mice at 0.2 ml/animal.
(§2) Negative group: intraperitoneally injected, once a day, receiving an equal volume of normal saline. On the 5th day after inoculation, the tumor volume was measured (V=0.52×L (the long diameter of the transplanted tumor)×W^2 (the shortest diameter of the transplanted tumor)), and the mice were weighed every three days. The experiment was terminated when the average tumor size in the negative group was more than 1 g (the tumor volume was about […]). The mice were sacrificed by cervical vertebra luxation and weighed, the tumor was removed, and the tumor inhibitory rate was calculated. Tumor inhibitory rate %=[1−(average tumor weight in drug group/average tumor weight in negative group)]×100%.

Experiment [2] has the same test system. Description: In vivo inhibitory effect of chlorogenic acid composition on S180 sarcoma transplantation in KM mice (Experimental example 2). The settings on record: for inhibitory effect on the growth volume of transplanted tumors (in words): at different time points, compared with negative control group, i.p. once a day, 30 mg/kg (ADM 2 mg/kg); for Tumor weight / Tumor inhibition rate / growth volume of transplanted tumor: intraperitoneally, once a day; for Tumor weight: at termination; for Tumor inhibition rate: from tumor weight vs negative group; for growth volume of transplanted tumor: x ± s, n = 10. More on the design: species or system mouse; key to growth volume of transplanted tumor: tumor volume V=0.52×L×W² (long × shortest diameter²). Here is the method: S180 sarcoma transplantation in KM mice
as §1
S180 cell lines were mouse sarcoma cells, and suspendedly grew in DH medium, containing 20% calf serum, 1 mmol/L glutamine, 100 U·ml^−1 penicillin, and 100 μg·ml^−1 streptomycin, then cultured in 37° C., 5% CO2, saturated humidity incubator. The medium was changed every 2-3 days for passage.
S180 cells in the logarithmic growth phase were harvested, centrifuged at 1000 rpm for 5 min, washed twice, and the number of viable cells was counted by trypan blue staining. The cells were inoculated into the abdominal cavity of KM mice as soon as possible, and these mice were used as breeding mice.
The ascites was extracted from 7 to 10 days, and the number of cells was adjusted to (about 1×10^6 cells) after dilution. The cell suspension in ascites was inoculated subcutaneously in the axillary of the left forelimb of the mice at 0.2 ml/animal. […] Coumaroylquinic acid group: intraperitoneally injected, once a day, at a dose of 30 mg·kg^−1.
Negative group: intraperitoneally injected, once a day, receiving an equal volume of normal saline.
as §2, with “On” for “Negative group: intraperitoneally injected, once a day, receiving an equal volume of normal saline. On”

The mark [3] stands for this setting: systemic + local administration: i.v. once a day 30 mg/kg plus s.c. peri-lesion once every 5 days 30 mg/kg.
[4] abbreviates: time after inoculation 74, 30 mg/kg.
Where [5] appears, read: time after inoculation 134 [sic], 30 mg/kg.
[6] abbreviates: time after inoculation printed 94, 30 mg/kg.
[7] abbreviates: time after inoculation printed 114, 30 mg/kg.

Consider `COc1cccc2c1C(=O)c1c(O)c3c(c(O)c1C2=O)C[C@@](O)(C(=O)CO)C[C@@H]3O[C@H]1C[C@H](N)[C@H](O)[C@H](C)O1` [ADM, adriamycin, reference compound], for which the “growth volume of transplanted tumor” value in experiment [1] (5 d after inoculation, intraperitoneally, once a day, 2 mg/kg) turned out to be 0.096 ± 0.041; in experiment [1] (9 d after inoculation, intraperitoneally, once a day, 2 mg/kg), 0.199 ± 0.080; in experiment [1] (11 d after inoculation, intraperitoneally, once a day, 2 mg/kg), 0.333 ± 0.159; in experiment [1] (13 d after inoculation, intraperitoneally, once a day, 2 mg/kg), 0.478 ± 0.241; in experiment [2] (time after inoculation 74, 2 mg/kg), 0.171 ± 0.082; in experiment [2] (time after inoculation 134 [sic], 2 mg/kg) it was 0.492 ± 0.204. Also, the “growth volume of transplanted tumor” value in experiment [2] (time after inoculation printed 54, 2 mg/kg) is on record as 0.116 ± 0.073; in experiment [2] (time after inoculation printed 114, 2 mg/kg), 0.363 ± 0.128. Moreover, the “inhibitory effect on the growth volume of transplanted tumors (in words)” value in experiment [1] and in experiment [2] was “significant inhibitory effect” in each case. This compound also gave a Tumor inhibiton rate in experiment [1] (intraperitoneally, once a day, 2 mg/kg, listed as Adriamycin (ADM), 2 mg/kg) of 56.95%. In addition, the Tumor weight in experiment [2] (2 mg/kg) came out at 1.132 ± 0.552 g. The Tumor inhibition rate in experiment [2] (2 mg/kg, listed as Adriamycin (ADM), 2 mg/kg) is reported as 53.38%.
With `O=C(/C=C/c1ccc(O)c(O)c1)O[C@@H]1C[C@](O)(C(=O)O)C[C@@H](O)[C@H]1O` [Chlorogenic acid], the “growth volume of transplanted tumor” value in experiment [1] (5 d after inoculation, local administration: subcutaneously into periphery of in situ lesion, once a day, 30 mg/kg) is recorded as 0.152 ± 0.028; in experiment [1] (5 d after inoculation, systemic administration: intravenously, once a day, 30 mg/kg) it was 0.141 ± 0.032; in experiment [1] (7 d after inoculation, local administration: subcutaneously into periphery of in situ lesion, once a day, 30 mg/kg) it was 0.221 ± 0.047; in experiment [1] (7 d after inoculation, systemic + local administration: i.v. once a day 30 mg/kg plus s.c. peri-lesion once every 5 days 30 mg/kg), 0.186 ± 0.065; in experiment [1] (7 d after inoculation, systemic administration: intravenously, once a day, 30 mg/kg), 0.205 ± 0.061; in experiment [1] (9 d after inoculation, local administration: subcutaneously into periphery of in situ lesion, once a day, 30 mg/kg), 0.311 ± 0.064. Besides, the “growth volume of transplanted tumor” value in experiment [1] (9 d after inoculation, systemic + local administration: i.v. once a day 30 mg/kg plus s.c. peri-lesion once every 5 days 30 mg/kg) was 0.243 ± 0.066; in experiment [1] (9 d after inoculation, systemic administration: intravenously, once a day, 30 mg/kg) it was 0.289 ± 0.082; in experiment [1] (11 d after inoculation, local administration: subcutaneously into periphery of in situ lesion, once a day, 30 mg/kg), 0.535 ± 0.078; in experiment [1] (11 d after inoculation, systemic + local administration: i.v. once a day 30 mg/kg plus s.c. peri-lesion once every 5 days 30 mg/kg), 0.344 ± 0.127; in experiment [1] (11 d after inoculation, systemic administration: intravenously, once a day, 30 mg/kg), 0.504 ± 0.158; in experiment [1] (13 d after inoculation, local administration: subcutaneously into periphery of in situ lesion, once a day, 30 mg/kg) it was 0.651 ± 0.154. Moreover, the “growth volume of transplanted tumor” value is 0.446 ± 0.157 in experiment [1] (13 d after inoculation, systemic + local administration: i.v. once a day 30 mg/kg plus s.c. peri-lesion once every 5 days 30 mg/kg); 0.593 ± 0.213 in experiment [1] (13 d after inoculation, systemic administration: intravenously, once a day, 30 mg/kg); 0.242 ± 0.053 in experiment [2] (setting [4]); 0.811 ± 0.142 in experiment [2] (setting [5]); 0.326 ± 0.071 in experiment [2] (setting [6]); 0.453 ± 0.093 in experiment [2] (setting [7]). The “inhibitory effect on the growth volume of transplanted tumors (in words)” value in experiment [1] and in experiment [2] was “significant inhibitory effect” throughout. Besides, the Tumor weight was 1.324 ± 0.239 g in experiment [1] (local administration: s.c. peri-lesion, once a day, 30 mg/kg); 0.957 ± 0.308 g in experiment [1] (setting [3]); 1.183 ± 0.215 g in experiment [1] (systemic administration: intravenously, once a day, 30 mg/kg). The Tumor inhibiton rate in experiment [1] (local administration: s.c. peri-lesion, once a day, 30 mg/kg, 30 mg/kg) stood at 41.36%; in experiment [1] (setting [3]), 57.62%; in experiment [1] (systemic administration: intravenously, once a day, 30 mg/kg, 30 mg/kg), 47.61%. Besides, the “inhibitory effect on the growth volume compared with the systemic administration group and the local administration group (in words)” value in experiment [1] (systemic+local administration group) was “better inhibitory effect”. This compound showed a Tumor inhibition rate in experiment [2] (30 mg/kg, 30 mg/kg) of 48.64%.
As to coumaroylquinic acid, in experiment [2], the “inhibitory effect on the growth volume of transplanted tumors (in words)” value was “didn't show inhibitory effect”. Also, in experiment [2] (30 mg/kg), the Tumor weight turned out to be 2.303 ± 0.475 g. Also, the Tumor inhibition rate is listed as 5.15% in experiment [2] (30 mg/kg, 30 mg/kg) and 5% in experiment [2] (30 mg/kg, listed as coumaroylquinic acid, 30 mg/kg). Moreover, the “growth volume of transplanted tumor” value in experiment [2] (setting [4]) came to 0.364 ± 0.074; in experiment [2] (setting [5]), 1.106 ± 0.137; in experiment [2] (time after inoculation printed 54, 30 mg/kg), 0.209 ± 0.058; in experiment [2] (setting [6]), 0.573 ± 0.093; in experiment [2] (setting [7]) it was 0.898 ± 0.075.
